Reference: ChEMBL document CHEMBL1151757, “Synthesis, radiosynthesis, and biological evaluation of fluorine-18-labeled 2beta-carbo(fluoroalkoxy)-3beta-(3'-((Z)-2-haloethenyl)phenyl)nortropanes: candidate radioligands for in vivo imaging of the serotonin transporter with positron emission tomography” (J Med Chem, 2008)

Assays:
[1] = Ratio of drug uptake in pons to cerebellum in anesthetized cynomolgus monkey after 85 mins postinjection; assay type: ADME, organism-based, Macaca fascicularis; conditions: in vivo
[2] = Ratio of drug uptake in medulla to cerebellum in anesthetized cynomolgus monkey after 65 mins postinjection; assay type: ADME, organism-based, Macaca fascicularis; conditions: in vivo
[3] = Drug uptake in anesthetized cynomolgus monkey brain frontal lobe after 2.5 mins postinjection; assay type: ADME, organism-based, Macaca fascicularis; conditions: in vivo
[4] = Drug uptake in anesthetized cynomolgus monkey brain frontal lobe after 27.5 mins postinjection; assay type: ADME, organism-based, Macaca fascicularis; conditions: in vivo
[5] = Drug uptake in anesthetized cynomolgus monkey brain frontal lobe after 45 mins postinjection; assay type: ADME, organism-based, Macaca fascicularis; conditions: in vivo, 0.75 h
[6] = Drug uptake in anesthetized cynomolgus monkey brain frontal lobe after 225 mins postinjection; assay type: ADME, organism-based, Macaca fascicularis; conditions: in vivo, 3.75 h
[7] = Ratio of drug uptake in occipital lobe to cerebellum in anesthetized cynomolgus monkey after 115 mins postinjection; assay type: ADME, organism-based, Macaca fascicularis; conditions: in vivo
[8] = test system: Putamen; experiment: Drug uptake in anesthetized cynomolgus monkey brain putamen after 175 mins postinjection; assay type: ADME, organism-based, Macaca fascicularis; conditions: in vivo
[9] = test system: Midbrain; experiment: Drug uptake in anesthetized cynomolgus monkey brain midbrain after 225 mins postinjection; assay type: ADME, organism-based, Macaca fascicularis; conditions: in vivo, 3.75 h
[10] = test system: Pons; experiment: Drug uptake in anesthetized cynomolgus monkey brain pons after 0.5 mins postinjection; assay type: ADME, organism-based, Macaca fascicularis; conditions: in vivo
[11] = test system: Pons; experiment: Drug uptake in anesthetized cynomolgus monkey brain pons after 3.5 mins postinjection; assay type: ADME, organism-based, Macaca fascicularis; conditions: in vivo
[12] = test system: Pons; experiment: Drug uptake in anesthetized cynomolgus monkey brain pons after 22.5 mins postinjection; assay type: ADME, organism-based, Macaca fascicularis; conditions: in vivo, 0.375 h
[13] = test system: Pons; experiment: Drug uptake in anesthetized cynomolgus monkey brain pons after 55 mins postinjection; assay type: ADME, organism-based, Macaca fascicularis; conditions: in vivo
[14] = Ratio of drug uptake in caudate to cerebellum in anesthetized cynomolgus monkey after 65 mins postinjection; assay type: ADME, organism-based, Macaca fascicularis; conditions: in vivo
[15] = Ratio of drug uptake in caudate to cerebellum in anesthetized cynomolgus monkey after 95 mins postinjection; assay type: ADME, organism-based, Macaca fascicularis; conditions: in vivo
[16] = test system: Pons; experiment: Drug uptake in anesthetized cynomolgus monkey brain pons after 155 mins postinjection; assay type: ADME, organism-based, Macaca fascicularis; conditions: in vivo
[17] = test system: Pons; experiment: Drug uptake in anesthetized cynomolgus monkey brain pons after 225 mins postinjection; assay type: ADME, organism-based, Macaca fascicularis; conditions: in vivo, 3.75 h
[18] = test system: Medulla; experiment: Drug uptake in anesthetized cynomolgus monkey brain medulla after 4.5 mins postinjection; assay type: ADME, organism-based, Macaca fascicularis; conditions: in vivo, 0.075 h
[19] = test system: Medulla; experiment: Drug uptake in anesthetized cynomolgus monkey brain medulla after 12.5 mins postinjection; assay type: ADME, organism-based, Macaca fascicularis; conditions: in vivo
[20] = test system: Medulla; experiment: Drug uptake in anesthetized cynomolgus monkey brain medulla after 15.5 mins postinjection; assay type: ADME, organism-based, Macaca fascicularis; conditions: in vivo
[21] = test system: Medulla; experiment: Drug uptake in anesthetized cynomolgus monkey brain medulla after 35 mins postinjection; assay type: ADME, organism-based, Macaca fascicularis; conditions: in vivo
[22] = test system: Medulla; experiment: Drug uptake in anesthetized cynomolgus monkey brain medulla after 55 mins postinjection; assay type: ADME, organism-based, Macaca fascicularis; conditions: in vivo
[23] = test system: Medulla; experiment: Drug uptake in anesthetized cynomolgus monkey brain medulla after 145 mins postinjection; assay type: ADME, organism-based, Macaca fascicularis; conditions: in vivo
[24] = test system: Medulla; experiment: Drug uptake in anesthetized cynomolgus monkey brain medulla after 175 mins postinjection; assay type: ADME, organism-based, Macaca fascicularis; conditions: in vivo
[25] = Octanol-water partition coefficient, log P at pH 7.4 by shake-flask method; assay type: physicochemical
[26] = Drug uptake in anesthetized cynomolgus monkey brain cerebellum after 1.5 mins postinjection; assay type: ADME, organism-based, Macaca fascicularis; conditions: in vivo, 0.025 h
[27] = Drug uptake in anesthetized cynomolgus monkey brain cerebellum after 12.5 mins postinjection; assay type: ADME, organism-based, Macaca fascicularis; conditions: in vivo
[28] = Drug uptake in anesthetized cynomolgus monkey brain cerebellum after 175 mins postinjection; assay type: ADME, organism-based, Macaca fascicularis; conditions: in vivo
[29] = Ratio of drug uptake in thalamus to cerebellum in anesthetized cynomolgus monkey after 115 mins postinjection; assay type: ADME, organism-based, Macaca fascicularis; conditions: in vivo
[30] = test system: Caudate; experiment: Drug uptake in anesthetized cynomolgus monkey brain caudate after 1.5 mins postinjection; assay type: ADME, organism-based, Macaca fascicularis, Caudate nucleus; conditions: in vivo, 0.025 h
[31] = test system: Caudate; experiment: Drug uptake in anesthetized cynomolgus monkey brain caudate after 4.5 mins postinjection; assay type: ADME, organism-based, Macaca fascicularis, Caudate nucleus; conditions: in vivo, 0.075 h
[32] = test system: Caudate; experiment: Drug uptake in anesthetized cynomolgus monkey brain caudate after 9.5 mins postinjection; assay type: ADME, organism-based, Macaca fascicularis, Caudate nucleus; conditions: in vivo
[33] = test system: Caudate; experiment: Drug uptake in anesthetized cynomolgus monkey brain caudate after 22.5 mins postinjection; assay type: ADME, organism-based, Macaca fascicularis, Caudate nucleus; conditions: in vivo, 0.375 h
[34] = test system: Caudate; experiment: Drug uptake in anesthetized cynomolgus monkey brain caudate after 27.5 mins postinjection; assay type: ADME, organism-based, Macaca fascicularis, Caudate nucleus; conditions: in vivo
[35] = test system: Caudate; experiment: Drug uptake in anesthetized cynomolgus monkey brain caudate after 55 mins postinjection; assay type: ADME, organism-based, Macaca fascicularis, Caudate nucleus; conditions: in vivo
[36] = test system: Caudate; experiment: Drug uptake in anesthetized cynomolgus monkey brain caudate after 65 mins postinjection; assay type: ADME, organism-based, Macaca fascicularis, Caudate nucleus; conditions: in vivo
[37] = test system: Caudate; experiment: Drug uptake in anesthetized cynomolgus monkey brain caudate after 125 mins postinjection; assay type: ADME, organism-based, Macaca fascicularis, Caudate nucleus; conditions: in vivo
[38] = test system: Caudate; experiment: Drug uptake in anesthetized cynomolgus monkey brain caudate after 225 mins postinjection; assay type: ADME, organism-based, Macaca fascicularis, Caudate nucleus; conditions: in vivo, 3.75 h
[39] = test system: Putamen; experiment: Drug uptake in anesthetized cynomolgus monkey brain putamen after 2.5 mins postinjection; assay type: ADME, organism-based, Macaca fascicularis; conditions: in vivo
[40] = test system: Thalamus; experiment: Drug uptake in anesthetized cynomolgus monkey brain thalamus after 9.5 mins postinjection; assay type: ADME, organism-based, Macaca fascicularis; design: unit not given here; conditions: in vivo
[41] = test system: Thalamus; experiment: Drug uptake in anesthetized cynomolgus monkey brain thalamus after 27.5 mins postinjection; assay type: ADME, organism-based, Macaca fascicularis; design: unit not given here; conditions: in vivo
[42] = test system: Thalamus; experiment: Drug uptake in anesthetized cynomolgus monkey brain thalamus after 85 mins postinjection; assay type: ADME, organism-based, Macaca fascicularis; design: unit not given here; conditions: in vivo
[43] = test system: Thalamus; experiment: Drug uptake in anesthetized cynomolgus monkey brain thalamus after 115 mins postinjection; assay type: ADME, organism-based, Macaca fascicularis; design: unit not given here; conditions: in vivo
[44] = test system: Midbrain; experiment: Drug uptake in anesthetized cynomolgus monkey brain midbrain after 4.5 mins postinjection; assay type: ADME, organism-based, Macaca fascicularis; design: unit not given here; conditions: in vivo, 0.075 h
[45] = test system: Midbrain; experiment: Drug uptake in anesthetized cynomolgus monkey brain midbrain after 12.5 mins postinjection; assay type: ADME, organism-based, Macaca fascicularis; design: unit not given here; conditions: in vivo
[46] = test system: Midbrain; experiment: Drug uptake in anesthetized cynomolgus monkey brain midbrain after 85 mins postinjection; assay type: ADME, organism-based, Macaca fascicularis; design: unit not given here; conditions: in vivo
[47] = Ratio of drug uptake in midbrain to cerebellum in anesthetized cynomolgus monkey after 135 mins postinjection; assay type: ADME, organism-based, Macaca fascicularis; conditions: in vivo, 2.25 h

O=C(OCC[18F])C1C2CCC(CC1c1cccc(/C=C\I)c1)N2 (configuration not stated)
Ratio [1]: 1.1 | Ratio [2]: 1.2 | Drug uptake [3]: 0.28 | Drug uptake [4]: 2.82 | Drug uptake [5]: 2.95 | Drug uptake [6]: 1.45 | Ratio [7]: 0.9 | Drug uptake [8]: 2.93 | Drug uptake [9]: 2.99 | Drug uptake [10]: 0 | Drug uptake [11]: 0.77 | Drug uptake [12]: 3.05 | Drug uptake [13]: 3.27 | Ratio [14]: 1.1 | Ratio [15]: 1.3 | Drug uptake [16]: 2.5 | Drug uptake [17]: 2.03 | Drug uptake [18]: 1.8 | Drug uptake [19]: 3.37 | Drug uptake [20]: 3.53 | Drug uptake [21]: 4.05 | Drug uptake [22]: 3.96 | Drug uptake [23]: 3.04 | Drug uptake [24]: 2.78 | logD [25]: 1.69 | Drug uptake [26]: 0.11 | Drug uptake [27]: 3.71 | Drug uptake [28]: 1.57 | Ratio [29]: 1.7 | Drug uptake [30]: 0.08 | Drug uptake [31]: 1.23 | Drug uptake [32]: 2.5 | Drug uptake [33]: 3.32 | Drug uptake [34]: 3.39 | Drug uptake [35]: 3.72 | Drug uptake [36]: 3.67 | Drug uptake [37]: 3 | Drug uptake [38]: 2.02 | Drug uptake [39]: 0.44 | Drug uptake [40]: 3.01 | Drug uptake [41]: 4.02 | Drug uptake [42]: 4.04 | Drug uptake [43]: 3.58 | Drug uptake [44]: 1.87 | Drug uptake [45]: 3.95 | Drug uptake [46]: 4.67 | Ratio [47]: 2
